Source: US10800781B2, “Compounds useful as inhibitors of ATR kinase” (Vertex Pharmaceuticals Incorporated, priority 2014, dated 2020)

Key:
full-length ATR = target: T1, full-length ATR (Homo sapiens, UniProt Q13535); test: ATR inhibition assay (radioactive-phosphate incorporation); format: biochemical; details: 5 nM full-length ATR, 10 μM ATP, 800 μM target peptide, 25° C.; read-out: Ki values (Ki(app)) for inhibiting ATR
T1 construct: Assays are carried out at 25° C. in the presence of 5 nM full-length ATR
Description: Compounds can be screened for their ability to inhibit ATR kinase using a radioactive-phosphate incorporation assay. Assays are carried out in a mixture of 50 mM Tris/HCl (pH 7.5), 10 mM MgCl2 and 1 mM DTT. Final substrate concentrations are 10 μM [γ-33P]ATP (3mCi 33P ATP/mmol ATP, Perkin Elmer) and 800 μM target peptide (ASELPASQPQPFSAKKK).
Assays are carried out at 25° C. in the presence of 5 nM full-length ATR. An assay stock buffer solution is prepared containing all of the reagents listed above, with the exception of ATP and the test compound of interest. 13.5 μL of the stock solution is placed in a 96 well plate followed by addition of 2 μL of DMSO stock containing serial dilutions of the test compound (typically starting from a final concentration of 15 μM with 3-fold serial dilutions) in duplicate (final DMSO concentration 7%). The plate is pre-incubated for 10 minutes at 25° C. and the reaction initiated by addition of 15 μL [γ-33P]ATP (final concentration 10 μM).
The reaction is stopped after 24 hours by the addition of 30 μL 0.1M phosphoric acid containing 2 mM ATP. […]
After removing mean background values for all of the data points, Ki(app) data are calculated from non-linear regression analysis of the initial rate data using the Prism software package (GraphPad Prism version 3.0cx for Macintosh, GraphPad Software, San Diego Calif., USA).

[1] = tested on: HCT116 colorectal cancer cells; test: Cisplatin sensitization assay, 96 h cell viability (MTS); format: cell-based; details: compound and Cisplatin added simultaneously
Description: Compounds can be screened for their ability to sensitize HCT116 colorectal cancer cells to Cisplatin using a 96 h cell viability (MTS) assay. […] Compounds and Cisplatin are then both added simultaneously to the cell media in 2-fold serial dilutions from a top final concentration of 10 μM as a full matrix of concentrations in a final cell volume of 200 μl, and the cells are then incubated at 37° C. in 5% CO2. After 96 h, 40 μl of MTS reagent (Promega G358a) is added to each well and the cells are incubated for 1 h at 37° C. in 5% CO2. Finally, absorbance is measured at 490 nm using a SpectraMax Plus 384 reader (Molecular Devices) and the concentration of compound required to reduce the IC50 of Cisplatin alone by at least 3-fold (to 1 decimal place) can be reported.

T1 sequence (Q13535 whole entry): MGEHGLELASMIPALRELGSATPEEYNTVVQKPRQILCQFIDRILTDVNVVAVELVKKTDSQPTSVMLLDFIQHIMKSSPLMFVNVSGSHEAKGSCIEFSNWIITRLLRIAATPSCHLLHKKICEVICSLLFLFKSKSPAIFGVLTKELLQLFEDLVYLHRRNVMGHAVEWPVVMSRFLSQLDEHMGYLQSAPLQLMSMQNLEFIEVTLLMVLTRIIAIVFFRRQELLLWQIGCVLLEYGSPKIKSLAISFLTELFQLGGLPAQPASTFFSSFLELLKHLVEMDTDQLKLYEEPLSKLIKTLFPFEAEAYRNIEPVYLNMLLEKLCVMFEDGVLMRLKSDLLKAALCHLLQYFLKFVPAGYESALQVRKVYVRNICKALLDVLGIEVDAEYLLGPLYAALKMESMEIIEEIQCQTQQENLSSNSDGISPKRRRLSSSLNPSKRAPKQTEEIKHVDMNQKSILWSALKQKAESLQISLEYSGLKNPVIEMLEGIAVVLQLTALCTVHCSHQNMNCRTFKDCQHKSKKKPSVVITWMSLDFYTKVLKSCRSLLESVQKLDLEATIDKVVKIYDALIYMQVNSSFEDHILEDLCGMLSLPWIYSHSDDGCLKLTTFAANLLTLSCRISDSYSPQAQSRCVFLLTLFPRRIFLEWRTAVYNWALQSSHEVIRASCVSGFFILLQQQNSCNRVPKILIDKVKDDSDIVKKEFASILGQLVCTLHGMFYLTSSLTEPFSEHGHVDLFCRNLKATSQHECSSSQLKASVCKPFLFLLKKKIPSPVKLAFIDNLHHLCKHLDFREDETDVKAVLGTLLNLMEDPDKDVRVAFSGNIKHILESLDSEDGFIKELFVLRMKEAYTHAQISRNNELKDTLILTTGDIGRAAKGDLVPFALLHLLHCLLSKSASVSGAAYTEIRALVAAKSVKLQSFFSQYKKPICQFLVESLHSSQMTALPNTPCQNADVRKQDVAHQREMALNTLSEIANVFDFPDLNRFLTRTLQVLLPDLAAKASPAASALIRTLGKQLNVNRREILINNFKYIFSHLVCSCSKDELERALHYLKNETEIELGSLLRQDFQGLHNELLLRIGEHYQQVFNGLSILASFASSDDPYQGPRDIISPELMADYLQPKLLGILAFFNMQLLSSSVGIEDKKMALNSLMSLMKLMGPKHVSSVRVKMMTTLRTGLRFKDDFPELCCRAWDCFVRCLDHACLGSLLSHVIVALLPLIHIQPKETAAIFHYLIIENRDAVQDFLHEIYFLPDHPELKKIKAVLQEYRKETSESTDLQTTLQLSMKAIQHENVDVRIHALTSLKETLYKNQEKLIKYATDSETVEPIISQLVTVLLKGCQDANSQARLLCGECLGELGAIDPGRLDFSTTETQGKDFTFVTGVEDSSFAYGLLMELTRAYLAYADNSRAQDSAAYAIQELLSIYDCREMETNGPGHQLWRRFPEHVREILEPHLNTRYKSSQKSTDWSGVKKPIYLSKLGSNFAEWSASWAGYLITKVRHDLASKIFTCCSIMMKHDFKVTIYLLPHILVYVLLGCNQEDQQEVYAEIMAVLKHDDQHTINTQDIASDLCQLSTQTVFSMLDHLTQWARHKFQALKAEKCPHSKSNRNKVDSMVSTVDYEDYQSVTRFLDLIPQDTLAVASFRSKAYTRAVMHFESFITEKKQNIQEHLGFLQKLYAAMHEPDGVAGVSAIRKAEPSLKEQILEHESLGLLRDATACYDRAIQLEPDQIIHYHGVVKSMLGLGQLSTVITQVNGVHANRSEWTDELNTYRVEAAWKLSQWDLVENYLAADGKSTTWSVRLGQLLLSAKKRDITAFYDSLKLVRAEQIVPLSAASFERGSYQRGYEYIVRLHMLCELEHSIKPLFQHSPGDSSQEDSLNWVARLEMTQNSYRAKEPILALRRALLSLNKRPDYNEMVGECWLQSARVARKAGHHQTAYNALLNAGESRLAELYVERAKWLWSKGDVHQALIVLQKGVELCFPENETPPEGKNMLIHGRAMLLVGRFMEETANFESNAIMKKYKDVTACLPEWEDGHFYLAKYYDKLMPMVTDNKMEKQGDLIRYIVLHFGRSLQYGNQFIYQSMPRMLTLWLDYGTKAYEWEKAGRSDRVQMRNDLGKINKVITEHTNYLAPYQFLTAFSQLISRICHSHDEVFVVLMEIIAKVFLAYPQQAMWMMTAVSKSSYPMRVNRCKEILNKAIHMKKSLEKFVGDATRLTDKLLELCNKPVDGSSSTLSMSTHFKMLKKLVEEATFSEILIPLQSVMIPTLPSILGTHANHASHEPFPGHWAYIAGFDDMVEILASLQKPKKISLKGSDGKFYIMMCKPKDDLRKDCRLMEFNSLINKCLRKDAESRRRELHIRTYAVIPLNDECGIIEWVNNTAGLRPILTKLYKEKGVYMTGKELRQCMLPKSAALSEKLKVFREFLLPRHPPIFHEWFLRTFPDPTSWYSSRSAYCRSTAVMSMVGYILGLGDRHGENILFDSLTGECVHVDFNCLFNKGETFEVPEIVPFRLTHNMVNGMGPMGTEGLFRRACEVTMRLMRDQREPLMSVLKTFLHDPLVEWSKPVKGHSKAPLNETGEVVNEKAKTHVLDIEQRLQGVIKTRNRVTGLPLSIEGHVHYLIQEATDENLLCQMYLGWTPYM

Ki (full-length ATR): < 1000 nM
SMILES: Cn1cncc1-c1c(F)cncc1NC(=O)c1c(N)nn2cc(F)cnc12 [Compound I-1, 2-amino-6-fluoro-N-(5-fluoro-4-(1-methyl-1H-imidazol-5-yl)pyridin-3-yl)pyrazolo[1,5-a]pyrimidine-3-carboxamide]
Cisplatin sensitization values (concentration of compound required to reduce the IC50 of Cisplatin alone by at least 3-fold) [1]: < 200 nM
